Laboratory results: patent US10689370B2, “Cyclopropane carboxamide modulators of cystic fibrosis transmembrane conductance regulator” (Auspex Pharmaceuticals, Inc., priority 2014, dated 2020)

Experiment: In vitro human liver microsomal stability assay
Assay type: in vitro ADME
Conditions: human liver microsomes 2 mg per mL protein, NADPH-generating system, 1 uM test compound, 37 °C, 0-240 min; for half-life % change over d0: degradation half-life relative to non-deuterated d0 (Example 1); for Clearance % change over d0: relative to non-deuterated d0 (Example 1)
Method: In Vitro Liver Microsomal Stability Assay
Human liver microsomal stability assays were conducted at 2 mg per mL liver microsome protein with an NADPH-generating system consisting of NADP (1 mM, pH 7.4), glucose 6-phosphate (5 mM, pH 7.4) and glucose 6-phosphate dehydrogenase (I unit/mL). Test compounds were prepared as solutions in DMSO and added to the assay mixture (1 uM, final concentration in incubation) and incubated at 37±1° C. Reactions were initiated with addition of the test compounds and stopped at 0, 60, 120 or 240 min after test article addition with stop reagent, acetonitrile. Samples were centrifuged (920×g for 10 min at 10° C.) in 96-well plates. Supernatant fractions were analyzed by LC-MS/MS to determine the percent remaining and estimate the degradation half-life of the test compounds.

Compound | half-life % change over d0 | Clearance % change over d0
[2H]C([2H])(O)C(C)(C)c1cc2cc(NC(=O)C3(c4ccc5c(c4)OC(F)(F)O5)CC3)c(F)cc2n1C[C@@]([2H])(O)C([2H])([2H])O [Example 5, (R)1-(2,2-difluoro-2H-1,3-benzodioxol-5-yl)-N-[1-[2,3-dihydroxy(2,3,3-^2H3)propyl]-6-fluoro-2-(1-hydroxy-2-methyl(1,1-^2H2)propan-2-yl)-1H-indol-5-yl]cyclopropane-1-carboxamide] | 250.3% | −71.4%
CC(C)(CO)c1cc2cc(NC(=O)C3(c4ccc5c(c4)OC(F)(F)O5)CC3)c(F)cc2n1C[C@@H](O)CO [Example 1, (R)-1-(2,2-difluorobenzo[d][1,3]dioxol-5-yl)-N-(1-(2,3-dihydroxypropyl)-6-fluoro-2-(1-hydroxy-2-methylpropan-2-yl)-1H-indol-5-yl)cyclopropanecarboxamide, reference compound] | 0.0% | 0.0%
[2H]C([2H])([2H])C(CO)(c1cc2cc(NC(=O)C3(c4ccc5c(c4)OC(F)(F)O5)CC3)c(F)cc2n1C[C@@H](O)CO)C([2H])([2H])[2H] [Example 3, 1-(2,2-difluoro-2H-1,3-benzodioxol-5-yl)-N-[1-[(2R)-2,3-dihydroxypropyl]-6-fluoro-2-[1-hydroxy-2-methyl(^2H6)propan-2-yl]-1H-indol-5-yl]cyclopropane-1-carboxamide] | 13.3% | −11.9%
[2H]C([2H])(O)[C@]([2H])(O)Cn1c(C(C)(C)CO)cc2cc(NC(=O)C3(c4ccc5c(c4)OC(F)(F)O5)CC3)c(F)cc21 [Example 4, (R)1-(2,2-difluoro-2H-1,3-benzodioxol-5-yl)-N-[1-[2,3-dihydroxy(2,3,3-^2H3)propyl]-6-fluoro-2-(1-hydroxy-2-methylpropan-2-yl)-1H-indol-5-yl]cyclopropane-1-carboxamide] | 4.8% | −4.8%
[2H]C([2H])(O)C(C)(C)c1cc2cc(NC(=O)C3(c4ccc5c(c4)OC(F)(F)O5)CC3)c(F)cc2n1C[C@@H](O)CO [Example 2] | 200.0% | −66.7%

More lines, now with the values ahead:

half-life % change over d0 | Clearance % change over d0 | Compound
4.8% | −4.8% | [2H]C([2H])(O)[C@H](O)Cn1c(C(C)(C)CO)cc2cc(NC(=O)C3(c4ccc5c(c4)OC(F)(F)O5)CC3)c(F)cc21 [Example 8, (R)1-(2,2-difluoro-2H-1,3-benzodioxol-5-yl)-N-[1-[2,3-dihydroxy(3,3-^2H2)propyl]-6-fluoro-2-(1-hydroxy-2-methylpropan-2-yl)-1H-indol-5-yl]cyclopropane-1-carboxamide]
−4.2% | 4.8% | [2H]C([2H])([2H])C(CO)(c1cc2cc(NC(=O)C3(c4ccc5c(c4)OC(F)(F)O5)C([2H])([2H])C3([2H])[2H])c(F)cc2n1C[C@@H](O)CO)C([2H])([2H])[2H] [Example 7, (R)-1-(2,2-difluorobenzo[d][1,3]dioxol-5-yl)-N-(1-(2,3-dihydroxypropyl)-6-fluoro-2-(1-hydroxy-2-methyl(^2H6)propan-2-yl)-1H-indol-5-yl)(^2H4)cyclopropanecarboxamide]
281.8% | −73.8% | [2H]C([2H])(O)C(C)(C)c1cc2cc(NC(=O)C3(c4ccc5c(c4)OC(F)(F)O5)C([2H])([2H])C3([2H])[2H])c(F)cc2n1C[C@@H](O)CO [Example 6]
